According to patent publication US20230255953A1, “USE OF ROLUPERIDONE IN PREVENTING RELAPSE IN SCHIZOPHRENIA PATIENTS” (Minerva Neurosciences, Inc., priority 2022, published 2023):

Test system: patients with negative symptoms of schizophrenia
Assay: Integrated analysis of Studies #1 and #2 (pooled ITT): PANSS-derived scores (NSFS, total, positive and negative subscales), DB, OL and whole study
Format: in vivo, human
Parameters: key to NSFS Score change from Baseline, Median: change from Baseline in PANSS NSFS points; higher score = more severe
Experimental: The primary integrated analysis of the efficacy of Roluperidone compared with placebo for the treatment of negative symptoms of schizophrenia is based on the change from Baseline in the PANSS Marder's negative symptoms factor score (in this document referred to as NSFS) to Week 12. Efficacy is also supported by the analysis of change from Baseline in the PSP Total score and the CGI-S to Week 12.
The PANSS was assessed at the time points described in Table 4.
The PANSS-derived endpoints used in these studies and the integrated analyses are described in Table 5A and a summary of the individual PANSS items used by physicians and clinicians to measure the severity of the symptoms in a schizophrenia patient is provided in Table 5B. The scale is divided into three parts, a positive scale, which provides a “PANSS positive subscore”, a negative scale, which provides a “PANSS negative subscore”, and general psychopathology scale. The sum of these three parts provides a PANSS total score, which ranges from 30 to 210 (where higher scores indicate more severe symptoms). (See Kay, S. R., et al. “The positive and negative syndrome scale (PANSS) for schizophrenia,” Schizophr Bulletin, 13(2), 261-276 (1987) and Gopal, S., et al. “Improvement of Negative Symptoms in Schizophrenia with Paliperidone Palmitate 1-Month and 3-Month Long-Acting Injectables: Results from a Phase 3 Non-Inferiority Study” Neuropsychiatric Disease and Treatment, 681-690, DOI: 10.2147/NDT.5226296, both of which are incorporated by reference.)
The Efficacy data from Study Nos. 1 and 2 were pooled. The majority of patients in the pooled ITT population completed the DB period (502 patients overall, 66.3%), with similar rates in each treatment group (placebo: 69.8%, 32 mg Roluperidone: 65.3%, and 64 mg Roluperidone: 63.8%) (Table 12). The majority (62.7%) of those who completed the DB period entered the OL period. The most common reason for discontinuation during the DB period among patients overall was withdrawal of consent (15.6%), followed by adverse events (7.3%) and lack of efficacy (5.4%) (Table 12). […] Approximately twice as many patients in the Roluperidone groups (32 mg: 8.5%; 64 mg: 9.1%) discontinued due to adverse events compared with patients in the placebo group (4.3%). More patients in the placebo group discontinued due to lack of efficacy (6.7%) than in the Roluperidone groups (32 mg: 4.4%; 64 mg: 5.1%). The low number of patients who discontinued due to lack of efficacy or withdrawal of consent probably reflects a low level of worsening of positive symptoms.
The integrated analysis supporting the efficacy of Roluperidone as a treatment for the negative symptoms of schizophrenia in adults is presented below.

[1] = Placebo in DB to Roluperidone 32 mg in OL, pooled ITT
[2] = Placebo in DB to Roluperidone 64 mg in OL, pooled ITT
[3] = Placebo in DB to Roluperidone in OL, Total, pooled ITT
[4] = Roluperidone Total, Week 2, DB, pooled ITT
[5] = Roluperidone Total, Week 2, pooled ITT

1H-Isoindol-1-one,2-[ [1-[2-(4-fluorophenyl)-2-oxoethyl]-4-piperidinyl]methyl]-2,3-dihydro-, hydrochloride, hydrate (1:1:2) [Roluperidone]
Patients with moderate improvement in NSFS (magnitude of change 6-8) (64 mg, Week 12, pooled): 19% | Patients with moderate or high improvement in NSFS, total (64 mg, Week 12, pooled): 32% | NSFS, LS mean decrease from Baseline compared with placebo (64 mg, Week 12, pooled ITT): −3.9 | PANSS Positive Subscale Score change from Baseline, LS mean (SE) (64 mg, Week 12, pooled ITT): −0.2 (0.21) | PANSS Positive Subscale Score change from Baseline, Mean (SD) (64 mg, Week 12, pooled ITT): −0.5 (2.88) | PANSS Positive Subscale Score change from Baseline, Median (64 mg, Week 12, pooled ITT): 0.0 | PANSS Positive Subscale Score, Difference (95% CI) in LS mean (vs placebo) (64 mg, Week 12, pooled ITT): −0.4 | PANSS negative subscale score, LS mean change from Baseline compared with placebo (64 mg, Week 12, pooled ITT): −1.3 | PANSS positive subscale score, LS mean change from Baseline compared with placebo (64 mg, Week 12, pooled ITT): −0.4 | PANSS total score, LS mean change from Baseline compared with placebo (64 mg, Week 12, pooled ITT): −2.8 | Patients with 20% Reduction in NSFS at Week 12, percent (64 mg, responder analysis): 39% | Patients with 20% Reduction in PANSS Total Score at Week 12, percent (64 mg, responder analysis): 19% | Number of Patients with 20% Reduction in PANSS Total Score at Week 12 (64 mg, responder analysis, n/N): 34/176 | Number of Patients with 20% reduction in NSFS at Week 12 (64 mg, responder analysis, n/N): 68/176 | NSFS Change from Active BL to Week 24, Mean (SD) [1]: −2.1 (2.56) | NSFS Change from Active BL to Week 24, Median [1]: −2.0 | NSFS Change from Active BL to Week 52, Mean (SD) [1]: −4.5 (3.60) | NSFS Change from Active BL to Week 52, Median [1]: −4.0 | NSFS Change from Active BL to Week 54, Mean (SD) [1]: −4.7 (3.60) | NSFS Change from Active BL to Week 54, Median [1]: −4.0 | NSFS Change from Open-label BL to Week 24, Mean (SD) [1]: −2.1 (2.56) | NSFS Change from Open-label BL to Week 24, Median [1]: −2.0 | NSFS Change from Open-label BL to Week 52, Mean (SD) [1]: −4.5 (3.60) | NSFS Change from Open-label BL to Week 52, Median [1]: −4.0 | NSFS Change from Open-label BL to Week 54, Mean (SD) [1]: −4.7 (3.60) | NSFS Change from Open-label BL to Week 54, Median [1]: −4.0 | NSFS Change from Study BL to Week 24, Mean (SD) [1]: −5.3 (3.72) | NSFS Change from Study BL to Week 24, Median [1]: −5.0 | NSFS Change from Study BL to Week 52, Mean (SD) [1]: −7.9 (3.69) | NSFS Change from Study BL to Week 52, Median [1]: −8.0 | NSFS Change from Study BL to Week 54, Mean (SD) [1]: −7.9 (4.29) | NSFS Change from Study BL to Week 54, Median [1]: −7.0 | NSFS Change from Active BL to Week 24, Mean (SD) [2]: −1.8 (3.55) | NSFS Change from Active BL to Week 24, Median [2]: −2.0 | NSFS Change from Active BL to Week 52, Mean (SD) [2]: −4.9 (4.72) | NSFS Change from Active BL to Week 52, Median [2]: −6.0 | NSFS Change from Active BL to Week 54, Mean (SD) [2]: −4.2 (4.78) | NSFS Change from Active BL to Week 54, Median [2]: −5.0 | NSFS Change from Open-label BL to Week 24, Mean (SD) [2]: −1.8 (3.55) | NSFS Change from Open-label BL to Week 24, Median [2]: −2.0 | NSFS Change from Open-label BL to Week 52, Mean (SD) [2]: −4.9 (4.72) | NSFS Change from Open-label BL to Week 52, Median [2]: −6.0 | NSFS Change from Open-label BL to Week 54, Mean (SD) [2]: −4.2 (4.78) | NSFS Change from Open-label BL to Week 54, Median [2]: −5.0 | NSFS Change from Study BL to Week 24, Mean (SD) [2]: −4.2 (3.38) | NSFS Change from Study BL to Week 24, Median [2]: −4.0 | NSFS Change from Study BL to Week 52, Mean (SD) [2]: −7.0 (3.76) | NSFS Change from Study BL to Week 52, Median [2]: −7.5 | NSFS Change from Study BL to Week 54, Mean (SD) [2]: −6.6 (4.15) | NSFS Change from Study BL to Week 54, Median [2]: −7.0 | NSFS Change from Active BL to Week 24, Mean (SD) [3]: −1.9 (3.06) | NSFS Change from Active BL to Week 24, Median [3]: −2.0 | NSFS Change from Active BL to Week 52, Mean (SD) [3]: −4.7 (4.17) | NSFS Change from Active BL to Week 52, Median [3]: −5.0 | NSFS Change from Active BL to Week 54, Mean (SD) [3]: −4.4 (4.18) | NSFS Change from Active BL to Week 54, Median [3]: −5.0 | NSFS Change from Open-label BL to Week 24, Mean (SD) [3]: −1.9 (3.06) | NSFS Change from Open-label BL to Week 24, Median [3]: −2.0 | NSFS Change from Open-label BL to Week 52, Mean (SD) [3]: −4.7 (4.17) | NSFS Change from Open-label BL to Week 52, Median [3]: −5.0 | NSFS Change from Open-label BL to Week 54, Mean (SD) [3]: −4.4 (4.18) | NSFS Change from Open-label BL to Week 54, Median [3]: −5.0 | NSFS Change from Study BL to Week 24, Mean (SD) [3]: −4.8 (3.60) | NSFS Change from Study BL to Week 24, Median [3]: −4.0 | NSFS Change from Study BL to Week 52, Mean (SD) [3]: −7.5 (3.72) | NSFS Change from Study BL to Week 52, Median [3]: −8.0 | NSFS Change from Study BL to Week 54, Mean (SD) [3]: −7.3 (4.25) | NSFS Change from Study BL to Week 54, Median [3]: −7.0 | NSFS Score change from Baseline, Mean (SD) [4]: −1.3 (2.25) | NSFS Score change from Baseline, Median [4]: −1.0 | PANSS Negative Subscale Score change from Baseline, Mean (SD) [4]: −1.3 (2.20) | PANSS Negative Subscale Score change from Baseline, Median [4]: −1.0 | PANSS Total Score change from Baseline, Mean (SD) [4]: −2.0 (6.89) | PANSS Total Score change from Baseline, Median [4]: −2.0 | PANSS Positive Subscale Score change from Baseline, Mean (SD) [5]: 0.1 (2.78) | PANSS Positive Subscale Score change from Baseline, Median [5]: 0.0 | NSFS Score change from Baseline, Mean (SD) (Roluperidone Total, Week 4, DB, pooled ITT): −2.4 (2.64)
